Patent US12509474B2, “Inhibitors of complement factors and uses thereof” (Annexon, Inc., priority 2020, dated 2025)
Where a name gives a salt, the structure may show the parent alone.

What follows are compounds tested against T1, human C1s protein (Homo sapiens, UniProt P09871) (assay: C1s enzymatic assay (hydrolysis of YLGR-Rh110-dPro)). Conditions: substrate YLGR-Rh110-dPro 20 μM, 15 min pre-incubation, 60 min RT, fluorescence, read-out: hC1s pIC50 (converted).
T1 construct: A104
T1 sequence (P09871 16-688): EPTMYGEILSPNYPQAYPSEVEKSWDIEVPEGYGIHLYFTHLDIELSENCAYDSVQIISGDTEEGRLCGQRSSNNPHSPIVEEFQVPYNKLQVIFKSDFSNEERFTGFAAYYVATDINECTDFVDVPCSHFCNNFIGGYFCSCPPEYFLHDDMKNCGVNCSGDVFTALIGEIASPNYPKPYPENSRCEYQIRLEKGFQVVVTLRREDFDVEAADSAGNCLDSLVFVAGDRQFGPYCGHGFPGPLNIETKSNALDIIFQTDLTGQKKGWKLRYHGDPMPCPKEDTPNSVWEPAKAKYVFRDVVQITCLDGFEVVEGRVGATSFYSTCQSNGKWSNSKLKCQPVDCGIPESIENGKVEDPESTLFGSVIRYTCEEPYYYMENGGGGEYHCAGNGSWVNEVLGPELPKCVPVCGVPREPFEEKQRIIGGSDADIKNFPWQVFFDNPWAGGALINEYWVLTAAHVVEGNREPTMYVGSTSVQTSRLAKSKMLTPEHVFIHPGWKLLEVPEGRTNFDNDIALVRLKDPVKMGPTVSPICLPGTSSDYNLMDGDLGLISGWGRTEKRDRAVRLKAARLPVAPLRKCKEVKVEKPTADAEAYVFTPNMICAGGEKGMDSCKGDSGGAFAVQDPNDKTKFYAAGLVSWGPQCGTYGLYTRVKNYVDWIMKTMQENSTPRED
Assay type: biochemical
Procedure: Compound Testing in the C1s Enzymatic Assay
The enzyme cleaves the substrate with the release of Rh110 which is highly fluorescent. C1s inhibitors prevent the hydrolysis of the substrate thus resulting in a decrease of the signal.
On the day of the experiment 0.1 mg/mL BSA (Sigma, B4287) is added fresh to the buffer. The test item stock solutions are serially diluted 1:3 or 1:4 or 1:5 with DMSO, 11-point curves, in a 384-well compound plate. Nafamostat concentration curve is always included in the assay plate as a reference control.
The high controls are prepared dispensing in 0.25 μL DMSO in column 23, rows AH or AP and low controls with 0.25 μL of 0.1 M Nafamostat. […] The YLGR-Rh110-dPro substrate is prepared as 2× of the final assay concentration of 20 μM. 1/well of 2× enzyme solution is dispensed and pre-incubated for 15 min with the compounds. The enzymatic reaction is then started with 5 μL/well of the 2× substrate solution.

How did the IC50 turn out when `COc1ccc(B(O)O)c(F)c1-c1ccc2c(N)nnc(C)c2c1` [Example 34, [3-(1-amino-4-methylphthalazin-6-yl)-2-fluoro-4-methoxyphenyl]boronic Acid Formic Acid Salt] was run?
The IC50 was 1.02 nM.

`COc1cc(C(F)F)c(B(O)O)cc1-c1ccc2c(N)nnc(C)c2c1` [Example 35, [5-(1-amino-4-methylphthalazin-6-yl)-2-(difluoromethyl)-4-methoxyphenyl]boronic Acid] was tested. Which IC50 did it give?
Its IC50 is 2.69 nM.

Which IC50 does the source give for `Cc1nnc(N)c2ccc(-c3cc(B(O)O)cc(F)c3C#N)cc12` [Example 36, [3-(1-amino-4-methylphthalazin-6-yl)-4-cyano-5-fluorophenyl]boronic Acid Formic Acid Salt] here?
The IC50 was 1.91 nM.

For `COc1cc(C(F)(F)F)c(B(O)O)cc1-c1ccc2c(N)nnc(C)c2c1` [Example 37, [5-(1-amino-4-methylphthalazin-6-yl)-4-methoxy-2-(trifluoromethyl)phenyl]boronic Acid Formic Acid Salt], which IC50 is on record?
Its IC50 is 1.58 nM.

Which IC50 does the source give for `Cc1nnc(N)c2ccc(-c3cc(B(O)O)cc(C(F)(F)F)c3)cc12` [Example 38] here?
The IC50 was 1.05 nM.

Which IC50 does the source give for `Cc1nnc(N)c2ccc(-c3cc(B(O)O)ccc3C(F)(F)F)cc12` [Example 39, [3-(1-amino-4-methylphthalazin-6-yl)-4-(trifluoromethyl)phenyl]boronic Acid Formic Acid Salt] here?
Its IC50 is 1.32 nM.

Which IC50 does the source give for `Cc1nnc(N)c2ccc(-c3cc(B(O)O)cc(P(C)(C)=O)c3)cc12` [Example 40, [3-(1-amino-4-methylphthalazin-6-yl)-5-dimethylphosphorylphenyl]boronic Acid Formic Acid Salt] here?
The IC50 was 1.02 nM.

With `Cc1cc(C#N)c(-c2ccc3c(N)nnc(C)c3c2)cc1B(O)O` [Example 41, [5-(1-amino-4-methylphthalazin-6-yl)-4-cyano-2-methylphenyl]boronic Acid] as the compound, how does the IC50 read?
Its IC50 is 1.2 nM.

With `COc1c(C)cc(B(O)O)cc1-c1ccc2c(N)nnc(C)c2c1` [Example 42, [3-(1-amino-4-methylphthalazin-6-yl)-4-methoxy-5-methylphenyl]boronic Acid Formic Acid Salt] as the compound, how does the IC50 read?
Its IC50 is 1.38 nM.

How did the IC50 turn out when `COc1cc(C2CC2)c(B(O)O)cc1-c1ccc2c(N)nnc(C)c2c1` [Example 43, [5-(1-amino-4-methylphthalazin-6-yl)-2-cyclopropyl-4-methoxyphenyl]boronic Acid] was run?
Its IC50 is 1 nM.

`COc1cc(OC(F)(F)F)c(B(O)O)cc1-c1ccc2c(N)nnc(C)c2c1` [Example 44, [5-(1-amino-4-methylphthalazin-6-yl)-4-methoxy-2-(trifluoromethoxy)phenyl]boronic Acid] was tested. Which IC50 did it give?
Its IC50 is 0.813 nM.

Which IC50 does the source give for `COc1c(C)cc(-c2ccc3c(N)nnc(C)c3c2)cc1B(O)O` [Example 45, [5-(1-amino-4-methylphthalazin-6-yl)-2-methoxy-3-methylphenyl]boronic Acid] here?
The IC50 was 0.562 nM.

For `COc1cc2c(cc1-c1ccc3c(N)cnnc3c1)B(O)OCC2` [Example 46, 7-(1-hydroxy-6-methoxy-3,4-dihydro-2,1-benzoxazonin-7-yl)cinnolin-4-amine Trifluoroacetic Acid Salt], which IC50 is on record?
The IC50 was 7.41 nM.

`Cc1nnc(N)c2ccc(-c3cc(P(C)(C)=O)cc(B(O)O)c3F)cc12` [Example 47, [3-(1-amino-4-methylphthalazin-6-yl)-5-dimethylphosphoryl-2-fluorophenyl]boronic Acid Formic Acid Salt] was tested. Which IC50 did it give?
Its IC50 is 75.9 nM.

`COc1ccc(B(O)O)c(F)c1-c1ccc2c(N)cnnc2c1` [Example 48, [3-(4-aminocinnolin-7-yl)-2-fluoro-4-methoxyphenyl]boronic Acid] was tested. Which IC50 did it give?
Its IC50 is 4.07 nM.

For `COc1c(-c2ccc3c(N)nnc(C)c3c2)cc(B(O)O)cc1C(F)(F)F` [Example 49, [3-(1-amino-4-methylphthalazin-6-yl)-4-methoxy-5-(trifluoromethyl)phenyl]boronic Acid], which IC50 is on record?
Its IC50 is 1.91 nM.

Which IC50 does the source give for `COc1cc(Cl)c(B(O)O)cc1-c1ccc2c(N)nnc(C)c2c1` [Example 50, [5-(1-amino-4-methylphthalazin-6-yl)-2-chloro-4-methoxyphenyl]boronic Acid] here?
Its IC50 is 0.891 nM.

For `Nc1cnnc2cc(-c3cc(B(O)O)ccc3OC3CCOCC3)ccc12` [Example 51, [3-(4-aminocinnolin-7-yl)-4-(oxan-4-yloxy)phenyl]boronic Acid Formic Acid Salt], which IC50 is on record?
Its IC50 is 0.724 nM.

With `COc1ccc(B(O)O)cc1-c1cc(F)c2c(N)nnc(C)c2c1` [Example 55] as the compound, how does the IC50 read?
The IC50 was 6.61 nM.

For `Cc1nnc(N)c2ccc(-c3ccc4c(c3)B(O)OC(=O)C4)cc12` [Example 56, Trifluoroacetic Acid Salt], which IC50 is on record?
The IC50 was 5.89 nM.

For `COc1c(F)cc(B(O)O)cc1-c1ccc2c(N)nnc(C)c2c1` [Example 57, [3-(1-amino-4-methylphthalazin-6-yl)-5-fluoro-4-methoxyphenyl]boronic Acid Trifluoroacetic Acid Salt], which IC50 is on record?
The IC50 was 1.48 nM.

Which IC50 does the source give for `COc1c(-c2ccc3c(N)cnnc3c2)cc(B(O)O)cc1C1CCOCC1` [Example 58, [3-(4-aminocinnolin-7-yl)-4-methoxy-5-(oxan-4-yl)phenyl]boronic Acid] here?
The IC50 was 3.39 nM.

How did the IC50 turn out when `Cc1nnc(N)c2ccc(-c3cc(B(O)O)ccc3NC(=O)CC(C)C)cc12` [Example 59, [3-(1-amino-4-methylphthalazin-6-yl)-4-(3-methylbutanoylamino)phenyl]boronic Acid Formic Acid Salt] was run?
The IC50 was 3.24 nM.

For `Cc1nnc(N)c2ccc(-c3cc(B(O)O)ccc3NC(=O)CCC(C)C)cc12` [Example 61, [3-(1-amino-4-methylphthalazin-6-yl)-4-(4-methylpentanoylamino)phenyl]boronic Acid Formic Acid Salt], which IC50 is on record?
The IC50 was 6.76 nM.

`Cc1nnc(N)c2ccc(-c3cc(B(O)O)ccc3P(C)(C)=O)cc12` [Example 62, [3-(1-amino-4-methylphthalazin-6-yl)-4-dimethylphosphorylphenyl]boronic Acid Formic Acid Salt] was tested. Which IC50 did it give?
The IC50 was 28.8 nM.

Which IC50 does the source give for `COc1cc(C(F)(F)F)c(-c2ccc3c(N)nnc(C)c3c2)cc1B(O)O` [Example 63, [5-(1-amino-4-methylphthalazin-6-yl)-2-methoxy-4-(trifluoromethyl)phenyl]boronic Acid] here?
The IC50 was 2.14 nM.

`CC(C)CC(=O)Nc1ccc(B(O)O)cc1-c1ccc2c(N)cnnc2c1` [Example 64, [3-(4-aminocinnolin-7-yl)-4-(3-methylbutanamido)phenyl]boronic Acid Formic Acid Salt] was tested. Which IC50 did it give?
Its IC50 is 15.1 nM.

`CC(C)CCC(=O)Nc1ccc(B(O)O)cc1-c1ccc2c(N)cnnc2c1` [Example 65, [3-(4-aminocinnolin-7-yl)-4-(4-methylpentanamido)phenyl]boronic Acid Formic Acid Salt] was tested. Which IC50 did it give?
The IC50 was 57.5 nM.

Which IC50 does the source give for `Cc1nnc(N)c2ccc(-c3ccc4c(c3)B(O)OCC4(F)F)cc12` [Example 66, 6-(4,4-difluoro-1-hydroxy-3H-2,1-benzoxazonin-7-yl)-4-methylphthalazin-1-amine] here?
Its IC50 is 17.4 nM.

For `COc1ccc(B(O)O)cc1-c1cc(C)c2c(N)cnnc2c1` [Example 67, [3-(4-amino-5-methylcinnolin-7-yl)-4-methoxyphenyl]boronic Acid], which IC50 is on record?
Its IC50 is 17 nM.

For `Cc1nnc(N)c2ccc(-c3c(C(F)(F)F)ccc(B(O)O)c3F)cc12` [Example 68, [3-(1-amino-4-methylphthalazin-6-yl)-2-fluoro-4-(trifluoromethyl)phenyl]boronic Acid], which IC50 is on record?
Its IC50 is 129 nM.

How did the IC50 turn out when `Cc1nnc(N)c2ccc(-c3ccc(NC(=O)c4ccccc4)c(B(O)O)c3)cc12` [Example 70, [5-(1-amino-4-methylphthalazin-6-yl)-2-benzamidophenyl]boronic Acid] was run?
Its IC50 is 3.8 nM.
